Data on 16 compounds can be found in patent publication US20120316157A1, “PLANT DISEASE CONTROLLING COMPOSITION AND METHOD FOR CONTROLLING PLANT DISEASE” (SUMITOMO CHEMICAL COMPANY, LIMITED, priority 2010, published 2012).

For the assay, the system named is gray mold fungus (Botrytis cinerea). Nature of the assay: Cucumber leaf disk preventive test against gray mold fungus (Test Examples 1, 2 and Reference Example). Format: in vivo. How it is done: True leaf of cucumber is punched out with cork borer to 13 mm in diameter to prepare a leaf disk. In 24 well microwell plate that is dispensed with 1 ml 0.8% water agar, the leaf disk is placed such that the upper side of the leaf is in an upward direction. Thereto is added 20 micro liter a testing solution prepared by mixing a dimethyl sulfoxide solution of the present compound (racemate) and a dimethyl sulfoxide solution of ferimzone or oxolinic acid to a predetermined concentration to treat the leaf disk.
After confirming that the testing medical solution is dried, conidium of gray mold fungus (Botrytis cinerea) is suspended into potato dextrose broth (DIFCO) in a density of about 10^5 conidium/mL and is then subjected to a spray inoculation. After leaving to stand the leaf disk in a growth chamber set up at 15° C. for four days, an onset area on the leaf is measured and then calculated an onset area rate (hereinafter, referred to as an onset area rate of treated group).
The same operation is carried out with 20 micro liter water instead of 20 micro liter a testing medicine solution to calculate an onset area rate (hereinafter, referred to an onset area rate of non-treated group).
A preventive value is calculated from the above onset area rate of treated group and the onset area rate of non-treated group by the following equation:
Preventive value(%)=100×(A−B)/A
A: an onset area rate of treated group
B: an onset area rate of non-treated group
The same operations as described in Test Example 1 are carried out with fenamidone, acibenzolar-5-methyl, amisulbrom, dazomet, diclomezine, famoxadone, fenoxanil, probenazole, proquinazid, pyroquilon, quinoxyfen, tricyclazole, isoprothiolane or tiadinil instead of ferimzone or oxolinic acid, so as to calculate respective preventive values.
Also for comparison, the same operations as described in Test Example 1 are carried out with the exception that the testing medicine solution is substituted with a predetermined concentration of each dimethyl sulfoxide solution of the present compound (racemate), fenamidone, acibenzolar-5-methyl, amisulbrom, dazomet, diclomezine, famoxadone, fenoxanil, probenazole, proquinazid, pyroquilon, quinoxyfen, tricyclazole, isoprothiolane, or tiadinil, so as to calculate respective preventive values.
For comparison, the same operations as described in Test Example 1 are carried out with the exception that the testing medicine solution is substituted with a predetermined concentration of each dimethyl sulfoxide solution of ferimzone or oxolinic acid, so as to calculate a preventive value.

The mark [1] stands for this setting: Botrytis cinerea, foliar, 96 h, heterocyclic compound alone, 0.5 ppm, 15° C., four days, read-out: preventive value (%).
Setting [2] is: Botrytis cinerea, foliar, 96 h, heterocyclic compound alone, 5.0 ppm, 15° C., four days, read-out: preventive value (%).
Where [3] appears, read: heterocyclic compound alone, 0.5 ppm, 15° C., four days.
The mark [4] stands for this setting: heterocyclic compound alone, 5.0 ppm, 15° C., four days.
The mark [5] stands for this setting: Botrytis cinerea, foliar, 96 h, read-out: preventive value (%), heterocyclic compound alone, 0.5 ppm, 15° C., four days.
The mark [6] stands for this setting: Botrytis cinerea, foliar, 96 h, read-out: preventive value (%), heterocyclic compound alone, 5.0 ppm, 15° C., four days.

Like-named read-outs stand apart in the source and are kept apart here.

As for `CSC1=N[C@@](C)(c2ccccc2)C(=O)N1Nc1ccccc1` [fenamidone], the pest or weed control at 0.5 ppm under setting [1] was 5%. The pest or weed control at 5 ppm under setting [2] was determined as 10%.

Take `CSC(=O)c1cccc2nnsc12` [acibenzolar-S-methyl]: the “preventive value (%)” value reads like this: under setting [3], 15%; under setting [4], 25%.

On to `CCCOc1nc2ccc(I)cc2c(=O)n1CCC` [proquinazid], for which the “preventive value (%)” value is, setting by setting: under setting [3], 10%; under setting [4], 15%.

`C=CCOC1=NS(=O)(=O)c2ccccc21` [probenazole]: the pest or weed control at 0.5 ppm under setting [1] was determined as 10%. In addition, under setting [2], the pest or weed control at 5 ppm is 25%.

For `C/C(=N/Nc1nc(C)cc(C)n1)c1ccccc1C` [ferimzone], the pest or weed control at 0.5 ppm under setting [5] is 10%. Further, under setting [6], the pest or weed control at 5 ppm turned out to be 15%.

In the case of `O=C1CCc2cccc3c2N1CC3` [pyroquilon], the pest or weed control at 0.5 ppm under setting [5] was found to be 10%. Under setting [6], the pest or weed control at 5 ppm is 15%.

Regarding `CNC(=O)C(OC)c1ccccc1COc1cc(C)ccc1C` (racemic) [the present amide compound], the pest or weed control at 1 ppm (Botrytis cinerea, foliar, 96 h, the present amide compound alone, 1.0 ppm, 15° C., four days) came to 46%. The pest or weed control at 2.5 ppm (Botrytis cinerea, foliar, 96 h, the present amide compound alone, 2.5 ppm, 15° C., four days) worked out at 56%.

In the case of `CC(Oc1ccc(Cl)cc1Cl)C(=O)NC(C)(C#N)C(C)C` (centres unmarked) [fenoxanil], the “preventive value (%)” value came out at 10% under setting [3] and 15% under setting [4].

Turning to `CN1CSC(=S)N(C)C1` [dazomet], the pest or weed control at 0.5 ppm under setting [5] worked out at 10%. Besides, under setting [6], the pest or weed control at 5 ppm was 20%.

On to `Cc1c(Cl)cc(-c2ccc(=O)[nH]n2)cc1Cl` [diclomezine], for which the pest or weed control at 0.5 ppm under setting [1] was 10%. Further, the pest or weed control at 5 ppm under setting [2] turned out to be 15%.

As for `Cc1cccc2sc3nncn3c12` [tricyclazole], under setting [1], the pest or weed control at 0.5 ppm turned out to be 10%. For the same compound, the pest or weed control at 5 ppm under setting [2] worked out at 15%.

With `Cc1ccc(NC(=O)c2snnc2C)cc1Cl` [tiadinil], the pest or weed control at 0.5 ppm under setting [1] stood at 10%. Besides, under setting [2], the pest or weed control at 5 ppm came to 25%.

For `C[C@@]1(c2ccc(Oc3ccccc3)cc2)OC(=O)N(Nc2ccccc2)C1=O` (racemic) [famoxadone], the pest or weed control at 0.5 ppm under setting [1] is 10%. The pest or weed control at 5 ppm under setting [2] was 15%.

For `CC(C)OC(=O)C(C(=O)OC(C)C)=C1SCCS1` [isoprothiolane], under setting [5], the pest or weed control at 0.5 ppm is 10%. Further, the pest or weed control at 5 ppm under setting [6] was determined as 15%.

`Cc1c(Br)c2ccc(F)cc2n1S(=O)(=O)c1ncn(S(=O)(=O)N(C)C)n1` [amisulbrom]: the “preventive value (%)” value stood at 10% under setting [3] and 15% under setting [4].

For the compound `Fc1ccc(Oc2ccnc3cc(Cl)cc(Cl)c23)cc1` [quinoxyfen], under setting [1], the pest or weed control at 0.5 ppm amounted to 10%. The pest or weed control at 5 ppm under setting [2] was 15%.
